# Laboratory results as given in PubChem BioAssay AID2060882 (Molecular Pharmacology Branch, DTP, NCI, 2025).
# System: 898857-211-R-J1-PDC complex spheroids, growth % test/control
# Test: Anticancer human tumor 898857-211-R-J1-PDC patient-derived melanoma cell line growth inhibition [RAS]
# Conditions: for viability, T/C: stronger effect = lower value
# In short: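 Tumour cells grown as complex spheroids with HUVEC endothelial cells and mesenchymal stem cells, treated with RAS pathway inhibitor combinations. Each agent spans half-log steps from near clinical Cmax, or 10 microM where Cmax is unknown.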
# 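Note: spheroids exposed to compound for seven days before readout.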
# 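Throughout, for viability, T/C: 100% = DMSO vehicle control wells.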
structure (smiles),measurement,setting,value
CCc1c2c(nc3ccc(O)cc13)-c1cc3c(c(=O)n1C2)COC(=O)[C@]3(O)CC + CCn1c(-c2cc(N3CCN(C)CC3)cnc2C(C)OC)c2c3cc(ccc31)-c1csc(n1)CC(NC(=O)C1CC1C)C(=O)N1CCCC(N1)C(=O)OCC(C)(C)C2,IC50,"curve of first compound, second compound 0.000949 µM",3.72 nM
same,IC50,"curve of first compound, second compound 0.003 µM",3.54 nM
same,IC50,"curve of first compound, second compound 0.00949 µM",3.37 nM
same,IC50,"curve of first compound, second compound 0.03 µM",3.84 nM
same,IC50,"curve of first compound, second compound 0.0949 µM",3.78 nM
same,IC50,"curve of first compound, second compound 0.3 µM",3.6 nM
same,"viability, T/C","second compound 0.000949 µM, first compound 0.000949 µM",78.6%
same,"viability, T/C","second compound 0.000949 µM, first compound 0.003 µM",55.3%
same,"viability, T/C","second compound 0.000949 µM, first compound 0.00949 µM",25.9%
same,"viability, T/C","second compound 0.000949 µM, first compound 0.03 µM",8.36%
same,"viability, T/C","second compound 0.000949 µM, first compound 0.0949 µM",6.43%
same,"viability, T/C","second compound 0.000949 µM, first compound 0.3 µM",6.55%
same,"viability, T/C","second compound 0.003 µM, first compound 0.000949 µM",79.7%
same,"viability, T/C","second compound 0.003 µM, first compound 0.003 µM",53.8%
same,"viability, T/C","second compound 0.003 µM, first compound 0.00949 µM",25.5%
same,"viability, T/C","second compound 0.003 µM, first compound 0.03 µM",8.25%
same,"viability, T/C","second compound 0.003 µM, first compound 0.0949 µM",8.03%
same,"viability, T/C","second compound 0.003 µM, first compound 0.3 µM",5.94%
same,"viability, T/C","second compound 0.00949 µM, first compound 0.000949 µM",82.9%
same,"viability, T/C","second compound 0.00949 µM, first compound 0.003 µM",52.6%
same,"viability, T/C","second compound 0.00949 µM, first compound 0.00949 µM",24.3%
same,"viability, T/C","second compound 0.00949 µM, first compound 0.03 µM",9.47%
same,"viability, T/C","second compound 0.00949 µM, first compound 0.0949 µM",7.12%
same,"viability, T/C","second compound 0.00949 µM, first compound 0.3 µM",7.62%
same,"viability, T/C","second compound 0.03 µM, first compound 0.000949 µM",79.3%
same,"viability, T/C","second compound 0.03 µM, first compound 0.003 µM",56.2%
same,"viability, T/C","second compound 0.03 µM, first compound 0.00949 µM",27%
same,"viability, T/C","second compound 0.03 µM, first compound 0.03 µM",9.94%
same,"viability, T/C","second compound 0.03 µM, first compound 0.0949 µM",7.45%
same,"viability, T/C","second compound 0.03 µM, first compound 0.3 µM",5.98%
same,"viability, T/C","second compound 0.0949 µM, first compound 0.000949 µM",86.1%
same,"viability, T/C","second compound 0.0949 µM, first compound 0.003 µM",55.3%
same,"viability, T/C","second compound 0.0949 µM, first compound 0.00949 µM",28%
same,"viability, T/C","second compound 0.0949 µM, first compound 0.03 µM",9.13%
same,"viability, T/C","second compound 0.0949 µM, first compound 0.0949 µM",7.78%
same,"viability, T/C","second compound 0.0949 µM, first compound 0.3 µM",6.37%
same,"viability, T/C","second compound 0.3 µM, first compound 0.000949 µM",87.5%
same,"viability, T/C","second compound 0.3 µM, first compound 0.003 µM",55.5%
same,"viability, T/C","second compound 0.3 µM, first compound 0.00949 µM",20.6%
same,"viability, T/C","second compound 0.3 µM, first compound 0.03 µM",9.8%
same,"viability, T/C","second compound 0.3 µM, first compound 0.0949 µM",7.03%
same,"viability, T/C","second compound 0.3 µM, first compound 0.3 µM",7.37%
CCC(CC)c1cc(NC2CCC(N)C2)n2nccc2n1 (stereo not given),"viability, T/C",compound 0.0316 µM,113% [middle of 4 runs]
same,"viability, T/C",compound 0.1 µM,99.5% [middle of 4 runs]
same,"viability, T/C",compound 0.316 µM,97.5% [middle of 4 runs]
same,"viability, T/C",compound 3.16 µM,1.39% [middle of 4 runs]
same,"viability, T/C",compound 10 µM,0.28% [middle of 4 runs]
same,IC50,curve of compound,1.04 µM [middle of 4 runs]
CC(C)NCC(C(=O)N1CCN(c2ncnc3c2C(C)CC3O)CC1)c1ccc(Cl)cc1 (stereo not given) + C#Cc1c(F)ccc2cc(O)cc(-c3ncc4c(N5CC6CCC(C5)N6)nc(OCC56CCCN5CC(F)C6)nc4c3F)c12,IC50,"curve of first compound, second compound 0.0316 µM",> 10000 nM
same,IC50,"curve of first compound, second compound 0.1 µM",> 10000 nM
same,IC50,"curve of first compound, second compound 0.316 µM",> 10000 nM
same,IC50,"curve of first compound, second compound 1 µM",> 10000 nM
same,IC50,"curve of first compound, second compound 3.16 µM",> 10000 nM
same,IC50,"curve of first compound, second compound 10 µM",132 nM
same,"viability, T/C","second compound 0.0316 µM, first compound 0.0316 µM",100%
same,"viability, T/C","second compound 0.0316 µM, first compound 0.1 µM",89.4%
same,"viability, T/C","second compound 0.0316 µM, first compound 0.316 µM",103%
same,"viability, T/C","second compound 0.0316 µM, first compound 1 µM",80.8%
same,"viability, T/C","second compound 0.0316 µM, first compound 3.16 µM",73.6%
same,"viability, T/C","second compound 0.0316 µM, first compound 10 µM",67.6%
same,"viability, T/C","second compound 0.1 µM, first compound 0.0316 µM",116%
same,"viability, T/C","second compound 0.1 µM, first compound 0.1 µM",104%
same,"viability, T/C","second compound 0.1 µM, first compound 0.316 µM",98.5%
same,"viability, T/C","second compound 0.1 µM, first compound 1 µM",88.2%
same,"viability, T/C","second compound 0.1 µM, first compound 3.16 µM",85.2%
same,"viability, T/C","second compound 0.1 µM, first compound 10 µM",61.4%
same,"viability, T/C","second compound 0.316 µM, first compound 0.0316 µM",101%
same,"viability, T/C","second compound 0.316 µM, first compound 0.1 µM",103%
same,"viability, T/C","second compound 0.316 µM, first compound 0.316 µM",104%
same,"viability, T/C","second compound 0.316 µM, first compound 1 µM",83.4%
same,"viability, T/C","second compound 0.316 µM, first compound 3.16 µM",70.8%
same,"viability, T/C","second compound 0.316 µM, first compound 10 µM",55.2%
same,"viability, T/C","second compound 1 µM, first compound 0.0316 µM",99.9%
same,"viability, T/C","second compound 1 µM, first compound 0.1 µM",95.8%
same,"viability, T/C","second compound 1 µM, first compound 0.316 µM",104%
same,"viability, T/C","second compound 1 µM, first compound 1 µM",92%
same,"viability, T/C","second compound 1 µM, first compound 3.16 µM",74.7%
same,"viability, T/C","second compound 1 µM, first compound 10 µM",61%
same,"viability, T/C","second compound 3.16 µM, first compound 0.0316 µM",102%
same,"viability, T/C","second compound 3.16 µM, first compound 0.1 µM",95.9%
same,"viability, T/C","second compound 3.16 µM, first compound 0.316 µM",109%
same,"viability, T/C","second compound 3.16 µM, first compound 1 µM",92.7%
same,"viability, T/C","second compound 3.16 µM, first compound 3.16 µM",78.1%
same,"viability, T/C","second compound 3.16 µM, first compound 10 µM",52%
same,"viability, T/C","second compound 10 µM, first compound 0.0316 µM",54.3%
same,"viability, T/C","second compound 10 µM, first compound 0.1 µM",59.4%
same,"viability, T/C","second compound 10 µM, first compound 0.316 µM",38.5%
same,"viability, T/C","second compound 10 µM, first compound 1 µM",33.8%
same,"viability, T/C","second compound 10 µM, first compound 3.16 µM",27.5%
same,"viability, T/C","second compound 10 µM, first compound 10 µM",8.24%
